The values that follow come from patent publication US6638956B2, “Pesticidal 1-arylpyrazoles” (Rhone-Poulenc, Inc., priority 1996, dated 2003).

Tested on in the first series: not given
Settings: not given
As a reminder, the melting point is the temperature of the solid-liquid transition. With `C[S+]([O-])c1c(C(=N)NO)nn(-c2c(Cl)cc(OC(F)(F)F)cc2Cl)c1N` (centres unmarked) [Compound 45, 5-Amino-1-[2,6-dichloro-4-(trifluoromethoxy)phenyl]-N-hydroxy-4-methylsulfinyl-1H-pyrazole-3-carboximidamide], the melting point lay within 198 to 200 °C. The same measure, in the same setting: next, `CS(=O)(=O)c1c(C(=N)NO)nn(-c2c(Cl)cc(C(F)(F)F)cc2Cl)c1N` [Compound 46, 5-Amino-1-[2,6-dichloro-4-(trifluoromethyl)phenyl]-N-hydroxy-4-methylsulfonyl-1H-pyrazole-3-carboximidamide]: 109 to 111 °C; `CSc1c(C(=N)NO)nn(-c2c(Cl)cc(C(F)(F)F)cc2Cl)c1N` [Compound 47, 5-Amino-1-[2,6-dichloro-4-(trifluoromethyl)phenyl]-N-hydroxy-4-methylthio-1H-pyrazole-3-carboximidamide]: 207 to 208 °C. Still for that read-out and setting: next, `CCS(=O)(=O)c1c(C(=N)NO)nn(-c2c(Cl)cc(C(F)(F)F)cc2Cl)c1N` [Compound 48, 5-Amino-1-[2,6-dichloro-4-(trifluoromethyl)phenyl]-N-hydroxy-4-ethylsulfonyl-1H-pyrazole-3-carboximidamide]: 109 to 111 °C; `CONC(=N)c1nn(-c2c(Cl)cc(C(F)(F)F)cc2Cl)c(N)c1[S+](C)[O-]` (centres unmarked) [Compound 49, 5-Amino-1-[2,6-dichloro-4-(trifluoromethyl)phenyl]-N-methoxy-4-methylsulfinyl-1H-pyrazole-3-carboximidamide]: 140 to 145 °C. On the same count and under the same terms, next, `CN=C(NOC)c1nn(-c2c(Cl)cc(C(F)(F)F)cc2Cl)c(N)c1[S+](C)[O-]` (centres unmarked) [Compound 50, 5-Amino-1-[2,6-dichloro-4-(trifluoromethyl)phenyl]-N-methoxy-N′-methyl-4-methylsulfinyl-1H-pyrazole-3-carboximidamide]: 139 to 142 °C.

Take `N=C(NO)c1nn(-c2c(Cl)cc(C(F)(F)F)cc2Cl)c(N)c1[S+]([O-])CCF` (centres unmarked) [Compound 51, 5-Amino-1-[2,6-dichloro-4-(trifluoromethyl)phenyl]-N-hydroxy-4-(2-fluoroethylsulfinyl)-1H-pyrazole-3-carboximidamide]: the melting point was in the range of 212 to 215 °C. The same measure, in the same setting: next, `N=C(NO)c1nn(-c2c(Cl)cc(C(F)(F)F)cc2Cl)c(N)c1S(=O)(=O)CCF` [Compound 52, 5-Amino-1-[2,6-dichloro-4-(trifluoromethyl)phenyl]-N-hydroxy-4-(2-fluoroethylsulfonyl)-1H-pyrazole-3-carboximidamide]: 107 to 111 °C; `C[S+]([O-])c1c(C(=N)NO)nn(-c2ncc(C(F)(F)F)cc2Cl)c1N` (centres unmarked) [Compound 54, 5-Amino-1-[3-chloro-5-(trifluoromethyl)-2-pyridinyl]-4-methylsulfinyl-N-hydroxy-1H-pyrazole-3-carboximidamide]: 234 to 235 °C; `CNc1c([S+](C)[O-])c(C(=N)NO)nn1-c1c(Cl)cc(C(F)(F)F)cc1Cl` (centres unmarked) [Compound 55, 1-[2,6-Dichloro-4-(trifluoromethyl)phenyl]-N-hydroxy-5-methylamino-4-methylsulfinyl-1H-pyrazole-3-carboximidamide]: 191 to 192 °C.

Turning to `CCNc1c([S+](C)[O-])c(C(=N)NO)nn1-c1c(Cl)cc(C(F)(F)F)cc1Cl` (centres unmarked) [Compound 56, 1-[2,6-Dichloro-4-(trifluoromethyl)phenyl]-5-ethylamino-N-hydroxy-4-methylsulfinyl-1H-pyrazole-3-carboximidamide], the melting point lay in the range of 192 to 193 °C. Same read-out and setting: then `C[S+]([O-])c1c(C(=N)NO)nn(-c2c(Cl)cc(C(F)(F)F)cc2Cl)c1NCCC#N` (centres unmarked) [Compound 58, 5-[2-(Cyano)ethylamino]-1-[2,6-dichloro-4-(trifluoromethyl)phenyl]-N-hydroxy-4-methylsulfinyl-1H-pyrazole-3-carboximidamide], with 175 to 176 °C. Molecule `C[S+]([O-])c1c(C(=N)NO)nn(-c2c(Cl)cc(C(F)(F)F)cc2Cl)c1NCC(N)=O` (centres unmarked) [Compound 59, 5-(Aminocarbonylmethylamino)-1-[2,6-dichloro-4-(trifluoromethyl)phenyl]-N-hydroxy-4-methylsulfinyl-1H-pyrazole-3-carboximidamide] came in with a melting point of 119 to 120 °C. On the same count and under the same terms, next, `C[S+]([O-])c1c(C(=N)NO)nn(-c2c(Cl)cc(C(F)(F)F)cc2Cl)c1NCCS(=O)(=O)c1ccccc1` (centres unmarked) [Compound 60, 1-[2,6-Dichloro-4-(trifluoromethyl)phenyl]-4-methylsulfinyl-5-[2-(phenylsulfonyl)ethylamino]-N-hydroxy-1H-pyrazole-3-carboximidamide]: 131 to 134 °C. Same read-out and setting: then `C[S+]([O-])C1=C(N)N(c2c(Br)cc(C(F)(F)F)cc2Br)N(O)C1C(=N)N` (centres unmarked) [Compound 61, 5-Amino-1-[2,6-dibromo-4-(trifluoromethyl)phenyl]-4-methylsulfinyl-2-N-hydroxy-1H-pyrazole-3-carboximidamide], with 240 to 241 °C; and `CCNC1(c2c(Cl)cc(C(F)(F)F)cc2Br)NNC(C(=N)NO)=C1[S+](C)[O-]` (centres unmarked) [Compound 62, 5-[2-Bromo-6-chloro-4-(trifluoromethyl)phenyl]-5-ethylamino-4-methylsulfinyl-N-hydroxy-1H-pyrazole-3-carboximidamide], with 213 to 214 °C; and `C[S+]([O-])c1c(C(=N)NO)nn(-c2c(Cl)cc(C(F)(F)F)cc2Br)c1N` (centres unmarked) [Compound 63, 5-Amino-1-[2-bromo-6-chloro-4-(trifluoromethyl)phenyl]-4-methylsulfinyl-N-hydroxy-1H-pyrazole-3-carboximidamide], with 237 to 238 °C. The same measure, in the same setting: next, `CC[S+]([O-])c1c(C(=N)NO)nn(-c2c(Cl)cc(C(F)(F)F)cc2Cl)c1NCC[S+](C)[O-]` (centres unmarked) [Compound 64, 1-[2,6-Dichloro-4-(trifluoromethyl)phenyl]-4-ethylsulfinyl-5-[2-(methylsulfinyl)ethylamino]-N-hydroxy-1H-pyrazole-3-carboximidamide]: 108 to 109 °C. With `C[S+]([O-])CCNc1c([S+](C)[O-])c(C(=N)NO)nn1-c1c(Cl)cc(C(F)(F)F)cc1Cl` (centres unmarked) [Compound 65, 1-[2,6-Dichloro-4-(trifluoromethyl)phenyl]-4-methylsulfinyl-5-[2-(methylsulfinyl)ethylamino]-N-hydroxy-1H-pyrazole-3-carboximidamide], the melting point was 150 to 151 °C. The same measure, in the same setting: next, `CC[S+]([O-])CCNc1c([S+]([O-])CC)c(C(=N)NO)nn1-c1c(Cl)cc(C(F)(F)F)cc1Cl` (centres unmarked) [Compound 66, 1-[2,6-Dichloro-4-(trifluoromethyl)phenyl]-4-ethylsulfinyl-5-[2-(ethylsulfinyl)ethylamino]-N-hydroxy-1H-pyrazole-3-carboximidamide]: 173 to 175 °C; `C#CCNc1c([S+](C)[O-])c(C(=N)NO)nn1-c1c(Cl)cc(C(F)(F)F)cc1Cl` (centres unmarked) [Compound 67, 1-[2,6-Dichloro-4-(trifluoromethyl)phenyl]-4-methylsulfinyl-5-[(prop-2-ynyl)amino]-N-hydroxy-1H-pyrazole-3-carboximidamide]: 194 to 196 °C. Same read-out and setting: then `C[S+]([O-])c1c(C(=N)NO)nn(-c2ccc(C(F)(F)F)cc2Cl)c1N` (centres unmarked) [Compound 68, 5-Amino-1-[2-chloro-4-(trifluoromethyl)phenyl]-4-methylsulfinyl-N-hydroxy-1H-pyrazole-3-carboximidamide], with 238 to 239 °C; and `C[S+]([O-])c1c(C(=N)NN)nn(-c2c(Cl)cc(C(F)(F)F)cc2Cl)c1N` (centres unmarked) [Compound 69, 5-Amino-1-[2,6-dichloro-4-(trifluoromethyl)phenyl]-4-methylsulfinyl-N-amino-1H-pyrazole-3-carboximidamide], with 210 °C. As for `CC(C)C(=O)NNC(=N)c1nn(-c2c(Cl)cc(C(F)(F)F)cc2Cl)c(N)c1[S+](C)[O-]` (centres unmarked) [Compound 70, 5-Amino-1-[2,6-dichloro-4-(trifluoromethyl)phenyl]-4-methylsulfinyl-N-(isopropylcarbonyl)amino-1H-pyrazole-3-carboximidamide], the melting point turned out to be 118 °C. The same measure, in the same setting: next, `CCCCCCCC(=O)NNC(=N)c1nn(-c2c(Cl)cc(C(F)(F)F)cc2Cl)c(N)c1[S+](C)[O-]` (centres unmarked) [Compound 71, 5-Amino-1-[2,6-dichloro-4-(trifluoromethyl)phenyl]-4-methylsulfinyl-N-(n-heptylcarbonyl)amino-1H-pyrazole-3-carboximidamide]: 122 °C.

Another series has as its system Lucilia sericata, sleep blow fly. The conditions noted are these: disclosed in WO 92/13451; cited from earlier work.
Regarding `N#Cc1nc(-c2c(C=NO)nn(-c3c(Cl)cc(C(F)(F)F)cc3Cl)c2Cl)[nH]c1C#N` [5-chloro-1-[2,6-dichloro-4-(trifluoromethyl)phenyl]-4-(4,5-dicyano-1H-imadazol-2-yl)-3-hydroxyiminomethyl-1H-pyrazole], the “activity against Lucilia sericata” value is listed as “activity against a single species”.
